We go through 13 molecules from ChEMBL document CHEMBL4002618, “Anticomplement triterpenoids from the roots of Ilex asprella” (2017).

Calls of active or inactive are those of the source. No cut-off for these calls is given here.

Test [1] deals with Erythrocyte. Briefly: Anticomplement activity in sheep erythrocytes assessed as concentration required for 50% hemolytic inhibition by classic pathway preincubated for 10 mins with guinea pig serum followed by erythrocyte addition measured after 30 mins by spectrophotometer. In kind it is functional.
Test [2] has as its system Erythrocyte. In words: Anticomplement activity in New Zealand White rabbit erythrocytes assessed as concentration required for 50% hemolytic inhibition by alternative pathway preincubated for 10 mins with normal human serum followed by erythrocyte addition measured after 30 mins by spectrophotometer. In kind it is functional.

Turning to `C[C@@H]1CC[C@]2(C(=O)O[C@@H]3O[C@H](CO)[C@@H](O)[C@H](O)[C@H]3O)CC[C@]3(C)C(=CC[C@@H]4[C@@]5(C)CC[C@H](O[C@@H]6OC[C@@H](O)[C@H](O)[C@H]6O)C(C)(C)[C@@H]5CC[C@]43C)[C@@H]2[C@]1(C)O`, the result in test [1] (Ovis aries) and in test [2] (Oryctolagus cuniculus) was inactive.

As to `CC(=O)O[C@H]1[C@H](O[C@H]2CC[C@]3(C)[C@H]4CC=C5[C@H]6[C@](C(=O)O[C@@H]7O[C@H](CO)[C@@H](O)[C@H](O)[C@H]7O)(CC[C@@H](C)[C@@]6(C)O)CC[C@@]5(C)[C@]4(C)CC[C@H]3C2(C)C)OC[C@H](O)[C@@H]1O`, the result in test [1] (Ovis aries) and in test [2] (Oryctolagus cuniculus) was inactive.

Take `CC1=C2[C@H](O)C[C@]3(C)[C@H]([C@@H]4O[C@@H]4[C@]45OC(=O)[C@@]6(CC[C@@H](C)[C@H](C)[C@H]64)CC[C@]53C)[C@@]2(C)C=C(O)C1=O`: the Activity turned out to be 0.505 mg/mL in test [1] and 0.774 mg/mL in test [2].

For the molecule `C=C1[C@@H](O)[C@H](O)C[C@]2(C)[C@H]3[C@@H]4O[C@@H]4[C@]45OC(=O)[C@@]6(CCC(C)(C)C[C@H]64)CC[C@@]5(C)[C@]3(C)CC[C@@H]12`, the Activity amounted to 0.357 mg/mL in test [1] and 0.781 mg/mL in test [2].

`CC1=C2[C@H](O)C[C@]3(C)[C@H]([C@@H]4O[C@@H]4[C@]45OC(=O)[C@@]6(CCC(C)(C)C[C@H]64)CC[C@]53C)[C@@]2(C)C=C(O)C1=O`: the Activity in test [1] is 0.38 mg/mL; in test [2] it was 0.944 mg/mL.

On to `COC(=O)[C@]12CC[C@@H](C)[C@@](C)(O)[C@H]1C1=CC[C@@H]3[C@@]4(C)CC[C@H](O)C(C)(C)[C@@H]4CC[C@@]3(C)[C@]1(COC(=O)/C=C/c1ccc(O)c(OC)c1)CC2`, for which the Activity came to 0.131 mg/mL in test [1] and 0.319 mg/mL in test [2].

Regarding `COC(=O)[C@H]1O[C@@H](O[C@H]2CC[C@]3(C)[C@H]4CC=C5[C@@H]6[C@H](O)C(C)(C)CC[C@]6(C(=O)O)CC[C@@]5(C)[C@]4(C)CC[C@H]3C2(C)C)[C@H](O)[C@@H](O)[C@@H]1O`, the outcome in test [1] (Ovis aries) and in test [2] (Oryctolagus cuniculus) was inactive.

Regarding `C[C@H]1[C@H](C)CC[C@]2(C(=O)O)CC[C@]3(C)C(=CC[C@@H]4[C@@]5(C)CC[C@H](O)[C@@](C)(CO)[C@@H]5CC[C@]43C)[C@H]12`, the Activity in test [1] worked out at 0.161 mg/mL; in test [2], 0.678 mg/mL.

In the case of `COC(=O)[C@H]1O[C@@H](O[C@H]2CC[C@]3(C)[C@H]4CC=C5[C@H]6[C@](C(=O)O)(CC[C@@H](C)[C@@]6(C)O)CC[C@@]5(C)[C@]4(C)CC[C@H]3C2(C)C)[C@H](O)[C@@H](O)[C@@H]1O`, the outcome in test [1] (Ovis aries) and in test [2] (Oryctolagus cuniculus) was inactive.

On to `C[C@H]1CC[C@]2(C(=O)O)CC[C@]3(C)C(=CC[C@@H]4[C@@]5(C)CC[C@H](O)C(C)(C)[C@@H]5CC[C@]43C)[C@@H]2[C@]1(C)O`, for which the Activity in test [1] turned out to be 0.237 mg/mL; in test [2] it was 0.579 mg/mL.

Consider `C=C1[C@@H](O)[C@H](O)C[C@]2(C)[C@H]3CC=C4[C@@H]5[C@@H](C)[C@H](C)CC[C@]5(C(=O)O)CC[C@@]4(C)[C@]3(C)CC[C@@H]12` [ILEKUDINOL B], for which the Activity in test [1] was determined as 0.123 mg/mL; in test [2], 0.586 mg/mL.

In the case of `C[C@H]1[C@H](C)CC[C@]2(C(=O)O)CC[C@]3(C)C(=CC[C@@H]4[C@@]5(C)CC[C@H](O)C(C)(C)[C@@H]5CC[C@]43C)[C@H]12` [URSOLIC ACID], the results for the Activity in test [1] and in test [2] were 0.278 mg/mL and 0.493 mg/mL, respectively.

As for `C[C@@H]1CC[C@]2(C(=O)O[C@@H]3O[C@H](CO)[C@@H](O)[C@H](O)[C@H]3O)CC[C@]3(C)C(=CC[C@@H]4[C@@]5(C)CC[C@H](O[C@@H]6OC[C@H](O)[C@H](O)[C@H]6O)C(C)(C)[C@@H]5CC[C@]43C)[C@@H]2[C@]1(C)O`, the result in test [1] (Ovis aries) and in test [2] (Oryctolagus cuniculus) was inactive.
